In one assay the target is T1, 17β-HSD3 enzyme (Homo sapiens, UniProt P37058).
T1 construct: expressed in transfected cells; host or cells: MCF-7 cell lines stably expressing 17β-HSD3
T1 sequence (P37058 1-310): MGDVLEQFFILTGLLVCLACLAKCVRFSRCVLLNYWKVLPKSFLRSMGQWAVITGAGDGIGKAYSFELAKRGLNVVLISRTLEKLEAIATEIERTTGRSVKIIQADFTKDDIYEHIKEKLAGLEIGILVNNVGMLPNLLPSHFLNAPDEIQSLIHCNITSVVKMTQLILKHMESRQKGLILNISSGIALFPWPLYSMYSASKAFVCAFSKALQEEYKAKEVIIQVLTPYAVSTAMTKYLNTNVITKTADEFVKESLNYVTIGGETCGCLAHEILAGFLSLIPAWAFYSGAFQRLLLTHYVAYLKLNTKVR
Description: Inhibition of 17β-HSD type 3 enzyme in MCF-7 cells stably expressing 17β-HSD3 (HPLC). The class given is cell-based. The conditions noted are these: MCF7, MCF-7 cells expressing 17β-HSD3, 2 nM androstenedione; for inhibition at 1 µM: 1 μM compound; for inhibition at 10 µM: 10 μM compound. The method, then:
The compounds were screened in respect of 17β-HSD3 enzyme activity in vitro on established MCF-7 cell lines, each stably expressing the 17β-HSD3 enzyme. The interconversion of substrate by 17β-HSD3 and the 17β-HSD3 inhibiting activity of chemical compounds in these cell lines were detected by HPLC system.
Varying amounts of the test compounds were incubated in the growth medium of the 17β-HSD3 expressing cells together tritium labeled androstenedione (2 nM). The medium samples were removed after exact incubation time and the reaction is stopped by trichloroacetic acid (TCA). The samples were analyzed by HPLC-coupled flow scintillation analysis.
Conversion: The 17β-HSD3 inhibiting activity of an individual test compound was calculated by comparing the conversion of a control sample without any test compound (referred to as “Negative Control”) to the (reduced) conversion of the test sample containing the particular compound to be tested (referred to as “Test Sample”).

Assay [1] addresses T2, recombinant human 17β-HSD2 (Homo sapiens, UniProt P37059).
T2 construct: made in house; host or cells: Sf9 insect cells (baculovirus, Bac to Bac Expression System)
T2 sequence (P37059 1-387): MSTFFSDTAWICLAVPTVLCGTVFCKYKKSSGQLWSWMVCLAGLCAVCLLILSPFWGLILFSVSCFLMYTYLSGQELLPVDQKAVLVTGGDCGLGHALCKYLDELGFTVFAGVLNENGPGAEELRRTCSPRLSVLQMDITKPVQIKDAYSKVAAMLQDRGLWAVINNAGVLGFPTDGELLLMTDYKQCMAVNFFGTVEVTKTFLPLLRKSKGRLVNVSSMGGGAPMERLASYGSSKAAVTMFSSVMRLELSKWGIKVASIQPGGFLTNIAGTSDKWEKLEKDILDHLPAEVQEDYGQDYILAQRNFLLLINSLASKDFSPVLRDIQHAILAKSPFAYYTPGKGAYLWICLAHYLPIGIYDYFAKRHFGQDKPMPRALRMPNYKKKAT
In words: Recombinant 17β-HSD2 assay (HPLC, 3H-estradiol conversion). It counts as biochemical. The conditions noted are these: 50 nM estradiol, 1 mM β-NAD, read-out: Inhibition of rec. 17β-HSD2; for inhibition at 0.1 µM: 100 nM compound; for inhibition at 1 µM: 1 μm compound. The method, then: 17β-HSD1 or 17β-HSD2 purification: Recombinant 17β-HSD1 and 17β-HSD2 baculoviruses were generated by the “Bac to Bac Expression System” (Invitrogen). Recombinant 17β-HSD1 or 17β-HSD2 bacmids were transfected to Sf9 insect cells using “Cellfectin Reagent” (Invitrogen). 60 h later cells were harvested; the fractions including 17β-HSD1 or 17β-HSD2 were isolated as described by Puranen et al. (1994). Aliquots were stored frozen until determination of enzymatic activity. Recombinant 17β-HSD2 assay: Recombinant 17β-HSD2 assay was performed as described for 17β-HSD1 but with following modifications: 6 μg/ml of recombinant protein homogenate, 50 nM Estradiol (Sigma, E8875) as a substrate, 800 000 cpm/ml ^3H-estradiol (PerkinElmer, NET317) as a tracer substrate and 1 mM β-NAD (Sigma N7004) as a co-factor were used. Total radioactivity for estrone and estradiol were determined in each sample and percent inhibition of estrone conversion by the respective inhibitor was calculated. For the calculation of % inhibition the following formula was used: [formula] Percent inhibition was calculated as follows: % inhibition=100−% conversion

Assay [2] concerns the target T3, recombinant human 17β-HSD1 (Homo sapiens, UniProt P14061).
T3 construct: made in house; host or cells: Sf9 insect cells (baculovirus, Bac to Bac Expression System)
T3 sequence (P14061 1-328): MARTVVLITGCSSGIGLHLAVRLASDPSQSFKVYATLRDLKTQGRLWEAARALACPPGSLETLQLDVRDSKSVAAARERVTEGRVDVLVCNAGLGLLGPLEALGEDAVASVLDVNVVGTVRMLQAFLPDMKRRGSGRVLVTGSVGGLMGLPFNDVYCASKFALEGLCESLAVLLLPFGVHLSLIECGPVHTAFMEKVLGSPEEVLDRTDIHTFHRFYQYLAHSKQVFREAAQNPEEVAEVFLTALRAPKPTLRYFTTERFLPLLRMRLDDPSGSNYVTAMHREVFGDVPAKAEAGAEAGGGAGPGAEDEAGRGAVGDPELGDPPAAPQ
Description: Recombinant 17β-HSD1 assay (HPLC, 3H-estrone conversion). It counts as biochemical. The following applies: 30 nM estrone, 1 mM NADPH, 30 min RT, read-out: Inhibition of rec. 17β-HSD1; for inhibition at 0.1 µM: 100 nM compound; for inhibition at 1 µM: 0.5 h, 1 μm compound. The method, then:
17β-HSD1 or 17β-HSD2 purification: Recombinant 17β-HSD1 and 17β-HSD2 baculoviruses were generated by the “Bac to Bac Expression System” (Invitrogen). Recombinant 17β-HSD1 or 17β-HSD2 bacmids were transfected to Sf9 insect cells using “Cellfectin Reagent” (Invitrogen). 60 h later cells were harvested; the fractions including 17β-HSD1 or 17β-HSD2 were isolated as described by Puranen et al. (1994). Aliquots were stored frozen until determination of enzymatic activity.
Recombinant 17β-HSD1 assay: Recombinant protein homogenate (0.1 μg/ml) was incubated in 20 mM KH2PO4 pH 7.4 reaction buffer, including protease inhibitors (Complete Protease Inhibitor Cocktail tablet, Roche Diagnostics, 1697498), with 30 nM estrone (Sigma, E9750) as substrate, 800 000 cpm/ml ^3H-estrone (PerkinElmer, NET319001MC) as a tracer substrate, and 1 mM NADPH (Sigma, N1630) as a co-factor for 30 min at RT, in the presence of potential inhibitors at concentrations of 1 μM or 0.1 μM. Inhibitor stock solutions were prepared in DMSO. The enzyme reaction was stopped by addition of trichloroacetic acid (1% final concentration). Samples were centrifuged in a microtiter plate at 4000 rpm for 10 min. Supernatants were applied to reverse phase HPLC on a Waters Symmetry C18 column, equipped with a Waters Sentry Guard column. Isocratic HPLC runs were performed at RT at a flow rate of 1 ml/min of acetonitrile:water 48:52 as running solvent. Radioactivity was monitored in the eluate by a Packard Flow Scintillation Analyzer. Total radioactivity for estrone and estradiol were determined in each sample and percent inhibition of estradiol conversion by the respective inhibitor was calculated
For the calculation of % inhibition the following formula was used:
[formula] Percent inhibition was calculated as follows: % inhibition=100−% conversion

In general, inhibition refers to the change of the read-out against control, counted positive when it falls.

As for `C[C@]12CC[C@@H]3c4ccc(B(O)O)cc4CC[C@H]3[C@@H]1[C@@H](CCCC(=O)NC1CCCCC1)CC2(F)F` [Compound 48, [15alpha-[4-(cyclohexylamino)-4-oxobutyl]-17,17-difluoroestra-1(10),2,4-trien-3-yl]boronic acid], at 17β-HSD3 enzyme, the inhibition at 1 µM worked out at 13% and the inhibition at 10 µM is 63%. Besides, in assay [1], the inhibition at 0.1 µM stood at 6.4% and the inhibition at 1 µM came to 12.8%. In assay [2], the inhibition at 0.1 µM is 25% and the inhibition at 1 µM is 50%.
Consider `CCN(CC)C(=O)CCC[C@H]1CC(F)(F)[C@@]2(C)CC[C@@H]3c4ccc(B(O)O)cc4CC[C@H]3[C@H]12` [Compound 49, [15alpha-[4-(diethylamino)-4-oxobutyl]-17,17-difluoroestra-1(10),2,4-trien-3-yl]boronic acid], for which the inhibition at 1 µM against 17β-HSD3 enzyme turned out to be 62%; in assay [1] it was 11.6%; in assay [2] it was 50%. The inhibition at 10 µM on 17β-HSD3 enzyme was found to be 89%. Besides, the values for the inhibition at 0.1 µM in assay [1] and in assay [2] were 7.7% and 29%, respectively.
Turning to `C[C@]12CC[C@@H]3c4ccc(B(O)O)cc4CC[C@H]3[C@@H]1[C@@H](CCCC(=O)NCc1cccnc1)CC2(F)F` [Compound 53, [17,17-difluoro-15alpha-{4-oxo-4-[(pyridin-3-ylmethyl)amino]butyl}estra-1(10),2,4-trien-3-yl]boronic acid], the figures for the inhibition at 1 µM (against 17β-HSD3 enzyme; in assay [1]; in assay [2]) were 4%, 8.6% and 50%, respectively. The inhibition at 10 µM on 17β-HSD3 enzyme amounted to 50%. The inhibition at 0.1 µM in assay [1] came to 5%; in assay [2] it was 19%.
As to `COc1ccc(CCN(C)C(=O)CC[C@@H]2CC(F)(F)[C@@]3(C)CC[C@@H]4c5ccc(B(O)O)cc5CC[C@H]4[C@H]23)cc1OC` [Compound 72, [15beta-(3-{[2-(3,4-dimethoxyphenyl)ethyl](methyl)amino}-3-oxopropyl)-17,17-difluoroestra-1(10),2,4-trien-3-yl]boronic acid], at 17β-HSD3 enzyme, the inhibition at 1 µM worked out at 45% and the inhibition at 10 µM came out at 71%. Further, in assay [1], the inhibition at 0.1 µM is -2.4% and the inhibition at 1 µM was 5.3%. Further, in assay [2], the inhibition at 0.1 µM worked out at 39% and the inhibition at 1 µM worked out at 77%.
Regarding `Cc1cnc(NC(=O)CC[C@@H]2CC(F)(F)[C@@]3(C)CC[C@@H]4c5ccc(C(N)=O)cc5CC[C@H]4[C@H]23)s1` [Compound 8, 17,17-difluoro-15beta-{3-[(5-methyl-1,3-thiazol-2-yl)amino]-3-oxopropyl}estra-1(10),2,4-triene-3-carboxamide], on 17β-HSD3 enzyme, the inhibition at 1 µM stood at 4% and the inhibition at 10 µM was determined as 46%.
Take `Cc1cccc2c(CCNC(=O)CC[C@@H]3CC(F)(F)[C@@]4(C)CC[C@@H]5c6ccc(B(O)O)cc6CC[C@H]5[C@H]34)c[nH]c12` [Compound 67, [17,17-difluoro-15beta-(3-{[2-(7-methyl-1H-indol-3-yl)ethyl]amino}-3-oxopropyl)estra-1(10),2,4-trien-3-yl]boronic acid]: at 17β-HSD3 enzyme, the inhibition at 1 µM was determined as 40% and the inhibition at 10 µM is 84%. Also, in assay [1], the inhibition at 0.1 µM stood at 10% and the inhibition at 1 µM was 15.8%. Besides, in assay [2], the inhibition at 0.1 µM came out at 47% and the inhibition at 1 µM was 66%.
As for `C[C@]12CC[C@@H]3c4ccc(B(O)O)cc4CC[C@H]3[C@@H]1[C@H](CCC(=O)NCc1ccc3c(c1)OCO3)CC2(F)F` [Compound 60, [15beta-{3-[(1,3-benzodioxol-5-ylmethyl)amino]-3-oxopropyl}-17,17-difluoroestra-1(10),2,4-trien-3-yl]boronic acid], on 17β-HSD3 enzyme, the inhibition at 1 µM was 28% and the inhibition at 10 µM was 67%. Further, in assay [1], the inhibition at 0.1 µM is 9.5% and the inhibition at 1 µM was 12.5%. In addition, in assay [2], the inhibition at 0.1 µM worked out at 46% and the inhibition at 1 µM was determined as 71%.
Turning to `C[C@]12CC[C@@H]3c4ccc(NCc5ccccc5)cc4CC[C@H]3[C@@H]1[C@@H](CCCC(=O)N1CCOCC1)CC2=O` [Compound 98, 3-(benzylamino)-15alpha-(4-morpholin-4-yl-4-oxobutyl)estra-1(10),2,4-trien-17-one], at 17β-HSD3 enzyme, the inhibition at 1 µM amounted to 15% and the inhibition at 10 µM came out at 48%.
Consider `C[C@]12CC[C@@H]3c4ccc(B(O)O)cc4CC[C@H]3[C@@H]1[C@@H](CCCC(=O)N1CCCCC1)CC2=O` [Compound 20, [17-oxo-15alpha-(4-oxo-4-piperidin-1-ylbutyl)estra-1(10),2,4-trien-3-yl]boronic acid], for which, at 17β-HSD3 enzyme, the inhibition at 1 µM turned out to be 15% and the inhibition at 10 µM was 57%.
Regarding `C[C@]12CC[C@@H]3c4ccc(B(O)O)cc4CC[C@H]3[C@@H]1[C@@H](CCCC(=O)N1CCCCC1)CC2(F)F` [Compound 57, [17,17-difluoro-15alpha-(4-oxo-4-piperidin-1-ylbutyl)estra-1(10),2,4-trien-3-yl]boronic acid], at 17β-HSD3 enzyme, the inhibition at 1 µM came to 28% and the inhibition at 10 µM came out at 78%.

These data come from patent US8288367B2, “Substituted estratriene derivatives as 17BETA HSD inhibitors” (Solvay Pharmaceuticals GmBH, priority 2006, dated 2012).
